For orientation: melting point means the temperature, or range, at which the solid turns liquid. A word on the inhibition: it is the percentage by which the read-out fell short of the control.

The record followed here is patent publication US6610708B1, “Cyclic amino compounds” (Sankyo Company, Limited, priority 1998, dated 2003).

Each structure is given as a SMILES string.

The subject of one series is Human Platelets. The experiment in a line: Antiaggregatory action in human platelets (ADP-induced aggregation in platelet-rich plasma). Format: cell-based. Conditions: human PRP; for inhibition at 10 µg/mL / inhibition at 30 µg/mL / inhibition at 100 µg/mL: Platelet, read-out: Test 1 (% inhibition) of platelet aggregation. Here is the method:
Antiaggregatory Action in Human Platelets
Platelet aggregation was measured using an automatic platelet aggregometer (PAM-8C, Mebanix) using the method of G.V.R. Born [Nature, 194, 927-929 ([…])] with a slight modification. Blood was collected from the antecubital vein of healthy volunteers who had not taken any medications for two weeks using 3.8% sodium citrate as an anticoagulant ( 1/9 volumes of blood). Platelet-rich plasma (PRP) was obtained by centrifugation (CR5DL, Hitachi) at 200× g for 15 min at room temperature. Platelet-poor plasma (PPP) was obtained by centrifugation of the remaining blood at 2,000× g for 10 min at room temperature. Platelet counts in PRP were measured by an automatic hematology analyzer (K-1000, Toa Iyo Denshi), and adjusted to 3×10^8 /ml by adding PPP. PRP prepared as described above was used for the platelet aggregation experiment. PRP (0.24 ml) containing a test compound was added to a cuvette and set placed in the platelet aggregometer. After pre-incubation for 1.5 min at 37° C., 0.01 ml of 0.25 mM ADP were added to the cuvette to induce platelet aggregation. Platelet aggregation was monitored for 10 min.
Antiaggregatory action of the test compound was determined as a percent inhibition (%) against platelet aggregation of a control (free of the test compound).

`COC(=O)C(c1ccccc1F)N1CCC(SS(=O)(=O)c2ccc(C)cc2)CC1` (stereo not drawn) [Example 3, 1-(2-Fluoro-α-methoxycarbonylbenzyl)-4-(4-methylphenylsulfonylthio)-piperidine]: the melting point is 106 to 109 °C. In the case of `O=C(C1CC1)C(c1ccccc1F)N1CCC(SS(=O)(=O)c2ccccc2)CC1` (stereo not drawn) [Example 9 (b), 1-(α-Cyclopropylcarbonyl-2-fluorobenzyl)-4-phenylsulfonylthiopiperidine], in the series on Human Platelets (10 μg/ml test compound), the inhibition at 10 µg/mL was found to be 23.4%. Besides, in the series on Human Platelets (30 μg/ml test compound), the inhibition at 30 µg/mL worked out at 97.3%. In addition, in the series with Human Platelets (100 μg/ml test compound), the inhibition at 100 µg/mL turned out to be 94%. In the case of `Cc1ccc([S+]([O-])SC2CCN(C(C(=O)C3CC3)c3ccccc3F)CC2)cc1` (stereo not drawn) [Example 13 (b), 1-(α-Cyclopropylcarbonyl-2-fluorobenzyl)-4-(4-methylphenylsulfinylthio)-piperidine], the inhibition at 10 µg/mL in the series on Human Platelets (10 μg/ml test compound) was found to be 13.3%. The inhibition at 30 µg/mL in the series on Human Platelets (30 μg/ml test compound) was 40%. Also, in the series on Human Platelets (100 μg/ml test compound), the inhibition at 100 µg/mL is 91.8%. Turning to `O=C(C1CC1)C(c1ccccc1F)N1CCC(SS(=O)(=O)c2ccc(Cl)cc2)CC1` (stereo not drawn) [Example 10 (b), 4-(4-Chlorophenylsulfonylthio)-1-(α-cyclopropylcarbonyl-2-fluorobenzyl)-piperidine], the inhibition at 10 µg/mL in the series with Human Platelets (10 μg/ml test compound) is 35.2%. The inhibition at 30 µg/mL with Human Platelets (30 μg/ml test compound) is 96.2%. Moreover, the inhibition at 100 µg/mL with Human Platelets (100 μg/ml test compound) worked out at 98.8%. For `O=C(C1CC1)C(c1ccccc1F)N1CCC(SS(=O)(=O)c2ccccc2)CC1` (stereo not drawn) [Example 9, 1-(α-Cyclopropylcarbonyl-2-fluorobenzyl)-4-phenylsulfonylthiopiperidine], the melting point is 105 to 116 °C. Regarding `COC(=O)C(c1ccccc1Cl)N1CCC(SS(=O)(=O)c2ccc(C)cc2)CC1` (stereo not drawn) [Example 2 (d), 1-(2-Chloro-α-methoxycarbonylbenzyl)-4-(4-methylphenylsulfonylthio)-piperidine], the inhibition at 10 µg/mL with Human Platelets (10 μg/ml test compound) is 32.8%. In the series on Human Platelets (30 μg/ml test compound), the inhibition at 30 µg/mL is 97.1%. Also, the inhibition at 100 µg/mL in the series on Human Platelets (100 μg/ml test compound) is 98%.

Molecule `O=C(C1CC1)C(c1ccccc1F)N1CCC(SS(=O)(=O)c2ccc(F)cc2)CC1` (stereo not drawn) [Example 11, 1-(α-Cyclopropylcarbonyl-2-fluorobenzyl)-4-(4-fluorophenylsulfonylthio)-piperidine] showed a melting point of 110 to 121 °C. On the same count and under the same terms, with `Cc1ccc(S(=O)(=O)SC2CCN(C(C(=O)C3CC3)c3ccccc3F)C2)cc1` (stereo not drawn) [Example 4, 1-(α-Cyclopropylcarbonyl-2-fluorobenzyl)-3-(4-methylphenylsulfonylthio)-pyrrolidine] the figure was 98 to 106 °C. As for `C[S+]([O-])SC1CCN(C(C(=O)C2CC2)c2ccccc2F)CC1` (stereo not drawn) [Example 15 (b), 1-(α-Cyclopropylcarbonyl-2-fluorobenzyl)-4-methylsulfinylthiopiperidine], in the series with Human Platelets (10 μg/ml test compound), the inhibition at 10 µg/mL was determined as 12.3%. Moreover, in the series on Human Platelets (30 μg/ml test compound), the inhibition at 30 µg/mL worked out at 28.1%. In addition, in the series with Human Platelets (100 μg/ml test compound), the inhibition at 100 µg/mL was 71.1%. Regarding `Cc1ccc(S(=O)(=O)SC2CN(C(C(=O)C3CC3)c3ccccc3F)C2)cc1` (stereo not drawn) [Example 5 (d), 1-(α-Cyclopropylcarbonyl-2-fluorobenzyl)-3-(4-methylphenylsulfonylthiol)-azetidine], the entries for the “Test 1 (% inhibition) of platelet aggregation” value in the series with Human Platelets (10 μg/ml test compound), in the series on Human Platelets (30 μg/ml test compound) and in the series on Human Platelets (100 μg/ml test compound) were 37.1%, 98.4% and 99.6%, respectively. Regarding `COC(=O)C(c1ccccc1Cl)N1CCC(SS(=O)(=O)c2ccc(C)cc2)CC1` (stereo not drawn) [Example 2, 1-(2-Chloro-α-methoxycarbonylbenzyl)-4-(4-methylphenylsulfonylthio)-piperidine], the melting point is 100 to 115 °C. With `Cc1ccc([S+]([O-])SC2CCN(C(C(=O)C3CC3)c3ccccc3F)C2)cc1` (stereo not drawn) [Example 14 (b), 1-(α-Cyclopropylcarbonyl-2-fluorobenzyl)-3-(4-methylphenylsulfinylthio)-pyrrolidine], the inhibition at 10 µg/mL with Human Platelets (10 μg/ml test compound) is 28.6%. The inhibition at 30 µg/mL with Human Platelets (30 μg/ml test compound) was found to be 64%. For the same molecule, the inhibition at 100 µg/mL in the series with Human Platelets (100 μg/ml test compound) was found to be 95.8%. In the case of `Cc1ccc([S+]([O-])SC2CCN(C(C(=O)C3CC3)c3ccccc3F)CC2)cc1` (stereo not drawn) [Example 13, 1-(α-Cyclopropylcarbonyl-2-fluorobenzyl)-4-(4-methylphenylsulfinylthio)-piperidine], the melting point lay in the range of 110 to 118 °C. Still for that read-out and setting: with `Cc1ccc(SSC2CCN(C(C(=O)C3CC3)c3ccccc3F)CC2)cc1` (stereo not drawn) [Example 16, 1-(α-Cyclopropylcarbonyl-2-fluorobenzyl)-4-(4-methylphenyldisulfanyl)-piperidine] the figure was 96 to 103 °C.

The molecule `O=C(C1CC1)C(c1ccccc1F)N1CCC(SSc2ccccc2[N+](=O)[O-])CC1` (stereo not drawn) [Example 18, 1-(α-Cyclopropylcarbonyl-2-fluorobenzyl)-4-(2-nitrophenyldisulfanyl)-piperidine] returned a melting point of 110 to 116 °C. Regarding `Cc1ccc(S(=O)(=O)SC2CCN(C(C(=O)C3CC3)c3ccccc3F)C2)cc1` (stereo not drawn) [Example 4 (d), 1-(α-Cyclopropylcarbonyl-2-fluorobenzyl)-3-(4-methylphenylsulfonylthio)-pyrrolidine], the inhibition at 10 µg/mL with Human Platelets (10 μg/ml test compound) was 30.6%. Further, the inhibition at 30 µg/mL with Human Platelets (30 μg/ml test compound) was determined as 77.6%. Further, the inhibition at 100 µg/mL with Human Platelets (100 μg/ml test compound) came out at 99.5%.

`CCOC(=O)/C=C1\CN(C(C(=O)C2CC2)c2ccccc2F)CCC1SS(=O)(=O)c1ccc(C)cc1` (stereo not drawn) [Example 6, (E)-1-(α-Cyclopropylcarbonyl-2-fluorobenzyl)-3-ethoxycarbonylmethylidene-4-(4-methylphenylsulfonylthio)piperidine] yielded a melting point of 94 to 103 °C.

For `COc1ccc(S(=O)(=O)SC2CCN(C(C(=O)C3CC3)c3ccccc3F)CC2)cc1` (stereo not drawn) [Example 12 (b), 1-(α-Cyclopropylcarbonyl-2-fluorobenzyl)-4-(4-methoxyphenylsulfonylthio)piperidine], the inhibition at 10 µg/mL in the series with Human Platelets (10 μg/ml test compound) was determined as 19.2%. Further, the inhibition at 30 µg/mL in the series on Human Platelets (30 μg/ml test compound) came out at 93.9%. Further, the inhibition at 100 µg/mL in the series on Human Platelets (100 μg/ml test compound) is 100%. `COc1ccc(S(=O)(=O)SC2CCN(C(C(=O)C3CC3)c3ccccc3F)CC2)cc1` (stereo not drawn) [Example 12, 1-(α-Cyclopropylcarbonyl-2-fluorobenzyl)-4-(4-methoxyphenylsulfonylthio)piperidine] showed a melting point of 113 to 122 °C.

Consider `COC(=O)C(c1ccccc1F)N1CCC(SS(=O)(=O)c2ccc(C)cc2)CC1` (stereo not drawn) [Example 3 (d), 1-(2-Fluoro-α-methoxycarbonylbenzyl)-4-(4-methylphenylsulfonylthio)-piperidine], for which the inhibition at 10 µg/mL in the series with Human Platelets (10 μg/ml test compound) is 24.4%. In addition, the inhibition at 30 µg/mL in the series with Human Platelets (30 μg/ml test compound) is 89.3%. The inhibition at 100 µg/mL with Human Platelets (100 μg/ml test compound) amounted to 99.8%. `C[S+]([O-])SC1CCN(C(C(=O)C2CC2)c2ccccc2F)CC1` (stereo not drawn) [Example 15, 1-(α-Cyclopropylcarbonyl-2-fluorobenzyl)-4-methylsulfinylthiopiperidine] came in with a melting point of 105 to 111 °C. Turning to `O=C(C1CC1)C(c1ccccc1F)N1CCC(SSc2ccc([N+](=O)[O-])cc2[N+](=O)[O-])CC1` (stereo not drawn), the melting point lay in the range of 120 to 127 °C. Consider `O=C(C1CC1)C(c1ccccc1F)N1CCC(SS(=O)(=O)c2ccc(F)cc2)CC1` (stereo not drawn) [Example 11 (b), 1-(α-Cyclopropylcarbonyl-2-fluorobenzyl)-4-(4-fluorophenylsulfonylthio)-piperidine], for which the inhibition at 10 µg/mL in the series on Human Platelets (10 μg/ml test compound) was found to be 15.5%. Besides, the inhibition at 30 µg/mL in the series on Human Platelets (30 μg/ml test compound) came to 98%. The inhibition at 100 µg/mL in the series with Human Platelets (100 μg/ml test compound) amounted to 92.5%.
